{"source": "patent US12490739B2", "about": "“Synergistically effective fungicide composition comprising choline phosphonate and at least one additional fungicide” (BELCHIM CROP PROTECTION NV, priority 2019, dated 2025)", "tested_on": "Plasmopara viticola", "assay": "Example 6 field trials, Vitis vinifera infected with downy mildew", "type": "in vivo", "settings": "120 g a.c./ha"}
{"compound": "CCC(C)(NC(=O)c1cc(Cl)c(C)c(Cl)c1)C(=O)CCl", "note": "(racemic) [ZOX, (RS)-3,5-dichloro-N-(3-chloro-1-ethyl-1-methyl-2-oxopropyl)-ptoluamide]", "values": [{"measurement": "ZOX f.e. (%)", "setting": "PESINC, location 1 (France, Negrette), 50 bunches, 1 DA-A6, BBCH 69", "value": 73.0, "unit": "%"}, {"measurement": "ZOX f.e. (%)", "setting": "PESINC, location 1 (France, Negrette), 50 bunches, 1 DA-A8, BBCH 75", "value": 18.0, "unit": "%"}, {"measurement": "ZOX f.e. (%)", "setting": "PESINC, location 1 (France, Negrette), 50 bunches, 16 DA-A9, BBCH 81", "value": 1.0, "unit": "%"}, {"measurement": "ZOX f.e. (%)", "setting": "PESINC, location 2 (France, Grenache), 50 bunches, 9 DA-A4, BBCH 71", "value": 10.0, "unit": "%"}, {"measurement": "ZOX f.e. (%)", "setting": "PESINC, location 2 (France, Grenache), 50 bunches, 9 DA-A4, BBCH 77", "value": 0.0, "unit": "%"}, {"measurement": "ZOX f.e. (%)", "setting": "PESINC, location 2 (France, Grenache), 100 leaves, 6 DA-A5, BBCH 77", "value": 0.0, "unit": "%"}, {"measurement": "ZOX f.e. (%)", "setting": "PESINC, location 2 (France, Grenache), 100 leaves, 9 DA-A4, BBCH 71", "value": 22.8, "unit": "%"}, {"measurement": "ZOX f.e. (%)", "setting": "PESINC, location 3 (Germany, Mueller-Thurgau), 50 bunches, 11 DA-A4, BBCH 75", "value": 48.8, "unit": "%"}, {"measurement": "ZOX f.e. (%)", "setting": "PESINC, location 3 (Germany, Mueller-Thurgau), 100 leaves, 7 DA-A8, BBCH 83", "value": 16.0, "unit": "%"}, {"measurement": "ZOX f.e. (%)", "setting": "PESINC, location 3 (Germany, Mueller-Thurgau), 100 leaves, 13 DA-A6, BBCH 83", "value": 18.7, "unit": "%"}, {"measurement": "ZOX f.e. (%)", "setting": "PESSEV, location 1 (France, Negrette), 50 bunches, 1 DA-A8, BBCH 75", "value": 75.2, "unit": "%"}, {"measurement": "ZOX f.e. (%)", "setting": "PESSEV, location 1 (France, Negrette), 50 bunches, 16 DA-A9, BBCH 81", "value": 51.7, "unit": "%"}, {"measurement": "ZOX f.e. (%)", "setting": "PESSEV, location 2 (France, Grenache), 50 bunches, 8 DA-A5, BBCH 77", "value": 21.4, "unit": "%"}, {"measurement": "ZOX f.e. (%)", "setting": "PESSEV, location 2 (France, Grenache), 50 bunches, 9 DA-A4, BBCH 71", "value": 81.3, "unit": "%"}, {"measurement": "ZOX f.e. (%)", "setting": "PESSEV, location 2 (France, Grenache), 50 bunches, 9 DA-A6, BBCH 79", "value": 1.3, "unit": "%"}, {"measurement": "ZOX f.e. (%)", "setting": "PESSEV, location 2 (France, Grenache), 100 leaves, 6 DA-A5, BBCH 77", "value": 15.1, "unit": "%"}, {"measurement": "ZOX f.e. (%)", "setting": "PESSEV, location 2 (France, Grenache), 100 leaves, 9 DA-A4, BBCH 71", "value": 67.7, "unit": "%"}, {"measurement": "ZOX f.e. (%)", "setting": "PESSEV, location 3 (Germany, Mueller-Thurgau), 50 bunches, 7 DA-A8, BBCH 83", "value": 48.9, "unit": "%"}, {"measurement": "ZOX f.e. (%)", "setting": "PESSEV, location 3 (Germany, Mueller-Thurgau), 50 bunches, 11 DA-A4, BBCH 75", "value": 80.2, "unit": "%"}, {"measurement": "ZOX f.e. (%)", "setting": "PESSEV, location 3 (Germany, Mueller-Thurgau), 50 bunches, 13 DA-A6, BBCH 83", "value": 49.2, "unit": "%"}, {"measurement": "ZOX f.e. (%)", "setting": "PESSEV, location 3 (Germany, Mueller-Thurgau), 100 leaves, 13 DA-A6, BBCH 83", "value": 52.1, "unit": "%"}]}
